The values below come from ChEMBL document CHEMBL1909046, “DrugMatrix in vitro pharmacology data”.

SMILES strings stand for the structures.

Test [1] is described as follows: DRUGMATRIX: Imidazoline I2, Central radioligand binding (ligand: [3H] Idazoxan). Format: cell membranes, Rattus norvegicus, Wistar, Cerebral cortex, Membrane. The note with it: Not Active = under 50% inhibition at 10 µM.
Test [2] in a line: DRUGMATRIX: Glutamate, Kainate radioligand binding (ligand: [3H] Kainic acid). Format: cell membranes, Rattus norvegicus, Wistar, Brain, Membrane. The note with it: Not Active = under 50% inhibition at 10 µM.
The target in test [3] is T1, Neuropeptide Y receptor type 1 (Homo sapiens, UniProt P25929). Note: in other assays of this panel Not Active means under 50% inhibition at 10 µM.
T1 sequence (P25929 whole entry): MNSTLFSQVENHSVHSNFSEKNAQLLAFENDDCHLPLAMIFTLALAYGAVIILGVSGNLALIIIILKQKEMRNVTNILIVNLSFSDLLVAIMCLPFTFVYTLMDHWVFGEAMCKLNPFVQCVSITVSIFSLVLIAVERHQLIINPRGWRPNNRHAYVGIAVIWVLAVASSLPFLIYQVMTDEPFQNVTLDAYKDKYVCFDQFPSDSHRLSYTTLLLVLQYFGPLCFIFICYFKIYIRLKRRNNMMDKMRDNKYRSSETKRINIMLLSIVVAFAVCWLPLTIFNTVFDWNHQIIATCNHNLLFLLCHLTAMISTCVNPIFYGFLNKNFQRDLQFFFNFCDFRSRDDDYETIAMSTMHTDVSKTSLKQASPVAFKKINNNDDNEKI
Format: cell membranes, Membrane. The note with it: sk-n-mc.

Test [4] in a line: DRUGMATRIX: Glutamate, NMDA, Phencyclidine radioligand binding (ligand: [3H] TCP). Format: cell membranes, Rattus norvegicus, Wistar, Cerebral cortex, Membrane. The note with it: Not Active = under 50% inhibition at 10 µM.
For a further test, the target named is T2, B2 bradykinin receptor (Homo sapiens, UniProt P30411). Note: in other assays of this panel Not Active means under 50% inhibition at 10 µM.
T2 sequence (P30411 whole entry): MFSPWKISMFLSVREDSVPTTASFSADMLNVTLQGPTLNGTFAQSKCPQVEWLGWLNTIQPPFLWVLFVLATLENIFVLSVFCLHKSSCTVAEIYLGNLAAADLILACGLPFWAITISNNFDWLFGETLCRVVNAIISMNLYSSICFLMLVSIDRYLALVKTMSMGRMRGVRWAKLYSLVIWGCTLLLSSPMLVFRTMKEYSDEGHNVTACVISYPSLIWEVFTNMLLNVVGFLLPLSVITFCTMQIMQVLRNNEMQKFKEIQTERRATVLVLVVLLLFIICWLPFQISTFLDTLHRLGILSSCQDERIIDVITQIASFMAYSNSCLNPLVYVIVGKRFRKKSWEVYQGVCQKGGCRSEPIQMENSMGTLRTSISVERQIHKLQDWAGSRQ
Format: cell membranes, Membrane. The note with it: chem-1.

Test [5] concerns the target T3, Angiotensin-converting enzyme (Oryctolagus cuniculus, UniProt P12822).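 Note: enzymatic inhibition of angiotensin-converting enzyme measured with FAPGG as the substrate; in other assays of this panel Not Active means under 50% inhibition at 10 µM.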
T3 sequence (P12822 whole entry): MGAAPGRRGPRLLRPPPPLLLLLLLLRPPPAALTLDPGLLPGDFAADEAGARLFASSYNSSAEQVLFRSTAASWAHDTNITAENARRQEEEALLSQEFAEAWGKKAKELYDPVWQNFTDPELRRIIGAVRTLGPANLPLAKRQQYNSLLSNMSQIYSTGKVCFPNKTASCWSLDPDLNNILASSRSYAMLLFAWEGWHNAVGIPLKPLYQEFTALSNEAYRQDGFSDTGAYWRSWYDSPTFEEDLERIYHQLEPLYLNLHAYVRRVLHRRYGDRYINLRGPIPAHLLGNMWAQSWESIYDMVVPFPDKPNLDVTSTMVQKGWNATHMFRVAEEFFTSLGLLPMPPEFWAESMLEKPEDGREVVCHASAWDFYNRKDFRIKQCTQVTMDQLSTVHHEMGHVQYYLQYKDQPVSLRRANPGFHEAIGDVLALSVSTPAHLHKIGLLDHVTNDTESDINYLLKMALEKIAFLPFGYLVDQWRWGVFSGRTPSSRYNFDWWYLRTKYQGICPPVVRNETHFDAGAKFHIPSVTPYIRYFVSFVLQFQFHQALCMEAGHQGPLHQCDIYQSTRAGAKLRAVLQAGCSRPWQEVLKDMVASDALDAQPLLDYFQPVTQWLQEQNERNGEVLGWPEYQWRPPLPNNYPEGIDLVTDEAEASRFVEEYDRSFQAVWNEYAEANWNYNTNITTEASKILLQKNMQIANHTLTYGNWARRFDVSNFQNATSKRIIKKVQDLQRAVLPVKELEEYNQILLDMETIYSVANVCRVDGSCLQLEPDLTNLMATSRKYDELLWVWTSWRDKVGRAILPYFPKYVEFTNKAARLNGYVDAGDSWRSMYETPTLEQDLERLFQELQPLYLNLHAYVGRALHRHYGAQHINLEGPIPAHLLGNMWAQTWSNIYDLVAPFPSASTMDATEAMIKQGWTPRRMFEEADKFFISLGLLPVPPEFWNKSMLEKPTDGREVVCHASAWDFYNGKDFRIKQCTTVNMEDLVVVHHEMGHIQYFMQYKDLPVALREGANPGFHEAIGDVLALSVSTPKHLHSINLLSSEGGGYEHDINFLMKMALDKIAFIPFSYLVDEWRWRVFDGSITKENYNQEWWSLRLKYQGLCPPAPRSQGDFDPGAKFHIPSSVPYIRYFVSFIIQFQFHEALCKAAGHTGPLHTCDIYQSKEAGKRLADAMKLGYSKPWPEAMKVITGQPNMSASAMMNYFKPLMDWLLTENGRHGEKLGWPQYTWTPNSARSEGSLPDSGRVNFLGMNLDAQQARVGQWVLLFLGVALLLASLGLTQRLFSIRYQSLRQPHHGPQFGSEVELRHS
The test can be described thus: biochemical. Format: tissue-based, Lung.

For test [6], the target named is T4, Neuropeptide Y receptor type 2 (Homo sapiens, UniProt P49146). Note: in other assays of this panel Not Active means under 50% inhibition at 10 µM.
T4 sequence (P49146 whole entry): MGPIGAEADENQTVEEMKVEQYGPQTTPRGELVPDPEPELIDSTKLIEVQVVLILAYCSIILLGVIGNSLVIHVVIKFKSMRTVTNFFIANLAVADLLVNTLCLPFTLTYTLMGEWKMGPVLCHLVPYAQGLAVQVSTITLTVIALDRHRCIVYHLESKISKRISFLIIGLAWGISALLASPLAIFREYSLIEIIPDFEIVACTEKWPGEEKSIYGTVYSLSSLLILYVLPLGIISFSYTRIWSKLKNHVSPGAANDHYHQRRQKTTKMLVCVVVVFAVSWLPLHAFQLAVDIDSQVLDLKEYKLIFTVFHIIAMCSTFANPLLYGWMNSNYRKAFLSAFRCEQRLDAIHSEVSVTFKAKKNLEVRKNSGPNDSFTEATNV
Format: cell membranes, Membrane. The note with it: kan-ts.

Test [7] can be described thus: DRUGMATRIX: beta-Lactamase enzyme inhibition (substrate: Nitrocefin). Details: species or system Bacillus cereus. The note with it: Not Active = under 50% inhibition at 10 µM.

With `CN(Cc1cc(Br)cc(Br)c1N)C1CCCCC1` [BROMHEXINE], the IC50 result (in test [1]; in test [2]; in test [3]; in test [4]; at B2 bradykinin receptor; in test [5]) was “Not Active” throughout. The half-inhibitory concentration (IC50) result in test [6] and in test [7] was “Not Active” each time. Besides, the Ki entry in test [1], in test [2], in test [4] and in test [7] was “Not Active” in each case.
Consider `CC12CCC(CC1)C(C)(C)O2` [EUCALYPTOL], for which the IC50 result (in test [1]; in test [2]; in test [3]; in test [4]; against B2 bradykinin receptor; in test [5]) was “Not Active” in each case. Moreover, the IC50 result in test [6] and in test [7] was “Not Active” in each case. Besides, the Ki entry in test [1], in test [2], in test [4] and in test [7] was “Not Active” throughout.
For `C[C@@H]1[C@H](O)[C@@H](C)/C=C/C=C/C=C/C=C/C=C/C=C/C=C/[C@H](O[C@@H]2O[C@H](C)[C@@H](O)[C@H](N)[C@@H]2O)C[C@@H]2O[C@](O)(C[C@@H](O)C[C@@H](O)[C@H](O)CC[C@@H](O)C[C@@H](O)CC(=O)O[C@H]1C)C[C@H](O)[C@H]2C(=O)O` [AMPHOTERICIN B], the concentration for half-maximal inhibition (IC50) entry (in test [1]; in test [2]; in test [3]; in test [4]; against B2 bradykinin receptor; in test [5]) was “Not Active” each time. Further, the half-inhibitory concentration (IC50) result in test [6] and in test [7] was “Not Active” in each case. The inhibition constant Ki entry in test [1], in test [2], in test [4] and in test [7] was “Not Active” each time.
Turning to `Cc1cc(C(C)(C)C)c(O)c(C)c1CC1=NCCN1` [OXYMETAZOLINE], the concentration for half-maximal inhibition (IC50) in test [1] (read-out: IC50) is 27 nM; in test [2], “Not Active”; in test [3], “Not Active”; in test [4], “Not Active”; at B2 bradykinin receptor it was “Not Active”; in test [5], “Not Active”. In addition, the IC50 entry in test [6] and in test [7] was “Not Active” in each case. Also, the Ki in test [1] (read-out: Ki) was 18 nM; in test [2], “Not Active”; in test [4], “Not Active”; in test [7], “Not Active”.
Turning to `CCN(CCO)CCCC(C)Nc1ccnc2cc(Cl)ccc12` (configuration not stated) [HYDROXYCHLOROQUINE], the half-maximal inhibitory concentration (IC50) in test [1] (read-out: IC50) was 479 nM; in test [2], “Not Active”; in test [3], “Not Active”; in test [4], “Not Active”; against B2 bradykinin receptor, “Not Active”; in test [5], “Not Active”. The IC50 entry in test [6] and in test [7] was “Not Active” in each case. Moreover, the inhibition constant (Ki) was 319 nM in test [1] (read-out: Ki), “Not Active” in test [2], “Not Active” in test [4] and “Not Active” in test [7].
With `CC12CCC(CC1=O)C2(C)C` (configuration not stated) [CAMPHOR], the half-inhibitory concentration (IC50) entry (in test [1]; in test [2]; in test [3]; in test [4]; on B2 bradykinin receptor; in test [5]) was “Not Active” throughout. In addition, the 50% inhibitory concentration (IC50) entry in test [6] and in test [7] was “Not Active” in each case. Further, the Ki entry in test [1], in test [2], in test [4] and in test [7] was “Not Active” throughout.
As for `CCC1(c2ccccc2)C(=O)NC(=O)NC1=O` [PHENOBARBITAL], the IC50 result (in test [1]; in test [2]; in test [3]; in test [4]; at B2 bradykinin receptor; in test [5]) was “Not Active” in each case. In addition, the IC50 entry in test [6] and in test [7] was “Not Active” each time. Also, the Ki entry in test [1], in test [2], in test [4] and in test [7] was “Not Active” each time.
For `C[N+](C)(C)CCOP(=O)([O-])OC[C@H](O)CO`, the half-maximal inhibitory concentration (IC50) result (in test [1]; in test [2]; in test [3]; in test [4]; at B2 bradykinin receptor; in test [5]) was “Not Active” throughout. Moreover, the half-inhibitory concentration (IC50) result in test [6] and in test [7] was “Not Active” each time. Moreover, the inhibition constant Ki result in test [1], in test [2], in test [4] and in test [7] was “Not Active” in each case.
Regarding `Oc1ccccc1` [PHENOL], the IC50 result (in test [1]; in test [2]; in test [3]; in test [4]; against B2 bradykinin receptor; in test [5]) was “Not Active” throughout. Also, the IC50 entry in test [6] and in test [7] was “Not Active” throughout. The inhibition constant (Ki) result in test [1], in test [2], in test [4] and in test [7] was “Not Active” in each case.
As for `Nc1nc(F)nc2c1ncn2[C@@H]1O[C@H](CO)[C@@H](O)[C@@H]1O` [FLUDARABINE], the IC50 entry (in test [1]; in test [2]; in test [3]; in test [4]; at B2 bradykinin receptor; in test [5]) was “Not Active” in each case. Further, the IC50 result in test [6] and in test [7] was “Not Active” throughout. Moreover, the Ki result in test [1], in test [2], in test [4] and in test [7] was “Not Active” each time.
With `c1ccc(Cn2ccnc2)cc1`, the 50% inhibitory concentration (IC50) entry (in test [1]; in test [2]; in test [3]; in test [4]; on B2 bradykinin receptor; in test [5]) was “Not Active” each time. For the same molecule, the IC50 entry in test [6] and in test [7] was “Not Active” each time. Moreover, the Ki entry in test [1], in test [2], in test [4] and in test [7] was “Not Active” throughout.

The IC50 is the concentration at which inhibition is half-maximal. In general, Ki refers to the dissociation constant of the complex between target and ligand, obtained from inhibition or displacement.
